Experiment: Phase I trial, combination with carboplatin: adverse events and DLTs
Format: in vivo, human
Procedure: Pts with advanced solid tumors enrolled in 2 sequential parts.
In part A, single pt cohorts received a compound of Formula A-2 once weekly in 21-day cycles with 3+3 dose escalation cohorts being implemented if grade 2 drug-related adverse events (AEs) occurred. […] If a DLT was reported, the cohort was expanded to include 3 additional pts with subsequent dose escalation being permitted if no further DLTs occurred. Paired pre- and post-treatment biopsies from selected pts in part B were assessed for pCHK1 levels by immunohistochemistry. Models based on preclinical and clinical data were used to simulate hematologic toxicities and pCHK1 inhibition for pts treated with a compound of Formula A-2 and CP.

[1] = A-2 120 mg/m^2 + Carboplatin AUC4 (N = 3)
[2] = A-2 120 mg/m^2 + Carboplatin AUC5 (N = 3)
[3] = A-2 240 mg/m2 + Carboplatin AUC 5 (n = 3)
[4] = A-2 240 mg/m^2 + Carboplatin AUC5 (N = 3)
[5] = A-2 + Carboplatin, Total (N = 15)
[6] = A-2 + Carboplatin, Total (N = 19)

CNCc1ccc(-c2cc(-c3nc(-c4ccc(S(=O)(=O)C(C)C)cc4)cnc3N)on2)cc1 [Compound A-2]
2: Treatment related adverse event: Anemia, All [2] | Treatment related adverse event: Nausea, All [2] | Treatment related adverse event: Neutropenia, All [2] | Treatment related adverse event: Fatigue, All [4] | Treatment related adverse event: Headache, All [4] | Treatment related adverse event: Neuropathy peripheral, All [4] | Treatment related adverse event: Neutropenia, ≥3 [4] | Treatment related adverse event: Vomiting, All [4] | Treatment related adverse event: Alopecia, All [5] | Treatment related adverse event: Headache, All [5] | Treatment related adverse event: Neuropathy peripheral, All [5] | Treatment related adverse event: Vomiting, All [5]
6: Treatment related adverse event: Fatigue, All [5]
3: Treatment related adverse event: Anemia, All [4] | Treatment related adverse event: Nausea, All [4] | Treatment related adverse event: Neutropenia, All [4] | Treatment related adverse event: Thrombocytopenia, All [4] | Treatment related adverse event: Flushing, All [5]
1 (febrile: DLTs (Cohort 1: A-2 240 mg/m^2 + Carboplatin AUC 5 mg/mL·min, 3/3 evaluable, febrile neutropenia) | DLTs (Cohort 4: A-2 90 mg/m^2 + Carboplatin AUC 5 mg/mL·min, 10/10 evaluable, febrile neutropenia)
1: Treatment related adverse event: Fatigue, All [2] | Treatment related adverse event: Flushing, All [2] | Treatment related adverse event: Flushing, ≥3 [2] | Treatment related adverse event: Neutropenia, ≥3 [2] | Treatment related adverse event: Thrombocytopenia, All [2] | Treatment related adverse event: Flushing, All [4] | Treatment related adverse event: Hypertension, All [4] | Treatment related adverse event: Hypertension, ≥3 [4] | Treatment related adverse event: Respiratory tract infection, All [4] | Treatment related adverse event: Respiratory tract infection, ≥3 [4] | Treatment related adverse event: Thrombocytopenia, ≥3 [4] | Treatment related adverse event: Flushing, ≥3 [5] | Treatment related adverse event: Hypertension, All [5] | Treatment related adverse event: Hypertension, ≥3 [5] | Treatment related adverse event: Respiratory tract infection, All [5] | Treatment related adverse event: Respiratory tract infection, ≥3 [5] | Treatment related adverse event: Thrombocytopenia, ≥3 [5] | DLT: G4 neutropenia and fever (DL1: Compound A-2 240 mg/m^2 + CP AUC 5 mg/mL·min (n=3)) | Non-DLT G3-4 AE: thrombocytopenia (DL2) | DLT: G3 hypersensitivity (DL2: Compound A-2 120 mg/m^2 + CP AUC 5 mg/mL·min (n=3))
9: Treatment related adverse event: Anemia, All [5]
8 (42.1) n (%): Treatment related adverse event: Neutropenia, All Grades [6]
5 (26.3) n (%): Treatment related adverse event: Any Event, Grade ≥ 3 [6]
5 pts: Grade 3/4-related AEs (part B across the various DLs)
0: Treatment related adverse event: Vomiting, All [1] | Treatment related adverse event: Vomiting, ≥3 [1] | Treatment related adverse event: Alopecia, All [2] | Treatment related adverse event: Alopecia, ≥3 [2] | Treatment related adverse event: Anemia, ≥3 [2] | Treatment related adverse event: Fatigue, ≥3 [2] | Treatment related adverse event: Headache, All [2] | Treatment related adverse event: Headache, ≥3 [2] | Treatment related adverse event: Hypertension, All [2] | Treatment related adverse event: Hypertension, ≥3 [2] | Treatment related adverse event: Nausea, ≥3 [2] | Treatment related adverse event: Neuropathy peripheral, All [2] | Treatment related adverse event: Neuropathy peripheral, ≥3 [2] | Treatment related adverse event: Respiratory tract infection, All [2] | Treatment related adverse event: Respiratory tract infection, ≥3 [2] | Treatment related adverse event: Thrombocytopenia, ≥3 [2] | Treatment related adverse event: Vomiting, All [2] | Treatment related adverse event: Vomiting, ≥3 [2] | Treatment related adverse event: Alopecia, All [4] | Treatment related adverse event: Alopecia, ≥3 [4] | Treatment related adverse event: Anemia, ≥3 [4] | Treatment related adverse event: Fatigue, ≥3 [4] | Treatment related adverse event: Flushing, ≥3 [4] | Treatment related adverse event: Headache, ≥3 [4] | Treatment related adverse event: Nausea, ≥3 [4] | Treatment related adverse event: Neuropathy peripheral, ≥3 [4] | Treatment related adverse event: Vomiting, ≥3 [4] | Treatment related adverse event: Alopecia, ≥3 [5] | Treatment related adverse event: Anemia, ≥3 [5] | Treatment related adverse event: Fatigue, ≥3 [5] | Treatment related adverse event: Headache, ≥3 [5] | Treatment related adverse event: Nausea, ≥3 [5] | Treatment related adverse event: Neuropathy peripheral, ≥3 [5] | Treatment related adverse event: Vomiting, ≥3 [5] | DLTs (Cohort 3: A-2 120 mg/m^2 + Carboplatin AUC 4 mg/mL·min, 3/3 evaluable)
1 (acute: DLTs (Cohort 2: A-2 120 mg/m^2 + Carboplatin AUC 5 mg/mL·min, 3/3 evaluable, acute hypersensitivity)
2 pts: Pts with DLT (Part B, carboplatin day 1, Compound A-2 days 2 and 9, 14 pts) | DLT: grade 3/4 neutropenia (part B, dosage levels B1 and B2)
7: Treatment related adverse event: Nausea, All [5] | Treatment related adverse event: Neutropenia, All [5] | Treatment related adverse event: Thrombocytopenia, All [5]
No G3-4 AEs: G3-4 AEs (DL3-4 (120 mg/m^2 + CP AUC 4; 90 mg/m^2 + CP AUC 5))
1 (5.3) n (%): Treatment related adverse event: Hypersensitivity, Grade ≥ 3 [6] | Treatment related adverse event: Thrombocytopenia, Grade ≥ 3 [6]
4 (21.1) n (%): Treatment related adverse event: Neutropenia, Grade ≥ 3 [6]
1 pt: DLT: grade 3 hypersensitivity (part B, dosage level B2)
0 n (%): Treatment related adverse event: Alopecia, All Grades [3] | Treatment related adverse event: Alopecia, Grade ≥ 3 [3] | Treatment related adverse event: Anemia, Grade ≥ 3 [3] | Treatment related adverse event: Fatigue, Grade ≥ 3 [3] | Treatment related adverse event: Flushing, Grade ≥ 3 [3] | Treatment related adverse event: Headache, Grade ≥ 3 [3] | Treatment related adverse event: Hypersensitivity, Grade ≥ 3 [3] | Treatment related adverse event: Infusion related reaction, All Grades [3] | Treatment related adverse event: Infusion related reaction, Grade ≥ 3 [3] | Treatment related adverse event: Nausea, Grade ≥ 3 [3] | Treatment related adverse event: Neuropathy peripheral, Grade ≥ 3 [3] | Treatment related adverse event: Pruritus, Grade ≥ 3 [3] | Treatment related adverse event: Vomiting, Grade ≥ 3 [3] | Treatment related adverse event: Alopecia, Grade ≥ 3 [6] | Treatment related adverse event: Anemia, Grade ≥ 3 [6] | Treatment related adverse event: Fatigue, Grade ≥ 3 [6] | Treatment related adverse event: Flushing, Grade ≥ 3 [6] | Treatment related adverse event: Headache, Grade ≥ 3 [6] | Treatment related adverse event: Infusion related reaction, Grade ≥ 3 [6] | Treatment related adverse event: Nausea, Grade ≥ 3 [6] | Treatment related adverse event: Neuropathy peripheral, Grade ≥ 3 [6] | Treatment related adverse event: Pruritus, Grade ≥ 3 [6] | Treatment related adverse event: Vomiting, Grade ≥ 3 [6]
3 (100) n (%): Treatment related adverse event: Anemia, All Grades [3] | Treatment related adverse event: Any Event, All Grades [3] | Treatment related adverse event: Nausea, All Grades [3] | Treatment related adverse event: Neutropenia, All Grades [3] | Treatment related adverse event: Thrombocytopenia, All Grades [3]
1 (33.3) n (%): Treatment related adverse event: Flushing, All Grades [3] | Treatment related adverse event: Hypersensitivity, All Grades [3] | Treatment related adverse event: Pruritus, All Grades [3] | Treatment related adverse event: Thrombocytopenia, Grade ≥ 3 [3]
4: Treatment related adverse event: Neutropenia, ≥3 [5] | Non-DLT G3-4 AE: neutropenia (DL1-2)

From patent US20230106592A1, “METHOD FOR TREATING CANCER USING A COMBINATION OF DNA DAMAGING AGENTS AND ATR INHIBITORS” (Vertex Pharmaceuticals Incorporated, priority 2015, published 2023)
